In PubChem BioAssay AID1508610 (The Scripps Research Institute Molecular Screening Center, 2020) one finds EC50 data, which are given here for 88 compounds.

This test concerns the target G-protein coupled receptor 151 (Homo sapiens) (UniProt Q8TDV0). Description: GPR151 activator potency, dose response, cell-based (AID 1508610). As to conditions: cell-based GPR151 activation reporter.

Structures are written as SMILES. Calls of active or inactive are those of the source. No rule for the calls is given here.

G-protein coupled receptor 151 (Homo sapiens), sequence (Q8TDV0 whole entry, looked up): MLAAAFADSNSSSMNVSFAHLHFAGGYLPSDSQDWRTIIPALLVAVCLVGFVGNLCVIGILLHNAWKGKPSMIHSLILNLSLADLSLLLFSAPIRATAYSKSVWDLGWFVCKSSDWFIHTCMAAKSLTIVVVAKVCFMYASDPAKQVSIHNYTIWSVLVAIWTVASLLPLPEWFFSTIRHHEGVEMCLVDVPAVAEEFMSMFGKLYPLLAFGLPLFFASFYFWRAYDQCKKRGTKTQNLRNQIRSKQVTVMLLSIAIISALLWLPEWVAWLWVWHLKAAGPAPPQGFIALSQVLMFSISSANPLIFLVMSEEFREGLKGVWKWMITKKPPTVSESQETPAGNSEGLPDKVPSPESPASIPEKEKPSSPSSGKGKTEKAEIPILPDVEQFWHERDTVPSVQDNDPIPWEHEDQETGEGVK

Regarding `Cc1nc(NC(=O)CSc2ccc(-c3nc4ccccc4[nH]3)cn2)sc1C`, the EC50 is > 28 µM (inactive).
`NC(=O)C1CCN(C(=O)c2ccc3nc(N4CCCCC4)sc3c2)CC1`: the EC50 was > 28 µM (inactive).
Take `CCOCC(=O)NC12CC3CC(CC(C3)C1)C2`: the EC50 was > 44.2 µM (inactive).
The figure for `CC(c1ccccc1)C1CC(=O)N(Cc2ccccc2)C1=O` (stereo not drawn) is > 32.4 µM (inactive); for `COc1ccc(-c2noc(CCC(=O)Nc3ccc(C)c(C)c3)n2)cc1` it is > 28 µM (inactive); for `O=C(c1cccs1)N1CCN=C1SCc1cccc([N+](=O)[O-])c1` it is > 28 µM (inactive).
Regarding `Cc1ccc2nc(-c3ccc(O)cc3)[nH]c2c1`, the EC50 was > 28 µM (inactive).
`COc1ccc(C(=O)N/N=C/c2ccc(O)cc2O)cc1OC`: the EC50 was > 28 µM (inactive).
The figure for `N#CC1=C(N)Oc2n[nH]c(C34CC5CC(CC(C5)C3)C4)c2C1c1cccnc1` (stereo not drawn) is > 27 µM (inactive); for `O=C(Nc1nc2ccccc2[nH]1)c1ccc(Cl)cc1Cl` it is > 29.3 µM (inactive).
The figure for `COc1ccc(-c2ccc(C(=O)Nc3ccc(NC(C)=O)cc3)s2)cn1` is > 28.2 µM (inactive); for `O=C(Nc1ccc(Oc2cc3ccccc3cc2Cl)c(Cl)c1)c1cc(Br)cc(Br)c1O` it is > 17.2 µM (inactive); for `COc1ccc(OC)c(C(C)NC(=O)c2ccccc2Cl)c1` (stereo not drawn) it is > 28 µM (inactive).
Consider `N#Cc1ccc(NC(=O)COC(=O)CCC(=O)c2ccc3c(c2)OCCO3)cc1`, for which the EC50 is > 28.4 µM (inactive).
For `COc1cc(OC)cc(C(=O)Nc2ccc3c(c2)OCO3)c1`, the EC50 is > 31.5 µM (inactive).
`Cn1c(=O)c2c(nc(NCCO)n2Cc2ccccc2F)n(C)c1=O`: the EC50 is > 34.4 µM (inactive).
In the case of `COc1ccc(S(=O)(=O)Nc2ccc(F)c(F)c2)cc1C`, the EC50 is > 28 µM (inactive).
Turning to `C=CCOc1ccc(C(=O)N(Cc2nc(-c3ccc(OC)c(OC)c3)no2)C(C)C)cc1`, the EC50 is > 28 µM (inactive).
As for `CCN(CC)c1ccc(NC(=O)/C=C\C(=O)O)cc1`, the EC50 is > 28 µM (inactive).
For `COc1ccccc1CN[C@H]1C[C@H]2C(=O)N[C@@H](CC(C)C)C(=O)N2C1`, the EC50 was > 28 µM (inactive).
As to `Cn1c(=O)[nH]c2nnc(-c3ccc(F)cc3)nc2c1=O`, the EC50 is > 28 µM (inactive).
Consider `O=S(=O)(NN=C1CCCCCC1)c1ccccc1`, for which the EC50 was > 28 µM (inactive).
As for `COC(=O)c1ccc(CN2CCN(Cc3ccc(OC)c(C)c3)C(CCO)C2)cc1` (stereo not drawn), the EC50 is > 28 µM (inactive).
For `CCC(C)NC(=O)c1cc(=O)[nH]c2ccc(Br)cc12` (stereo not drawn), the EC50 is 0.867 µM.
Turning to `O=C(NCc1ccc(Cl)cc1)C1C2C=CC3(CN(Cc4ccccc4)C(=O)C13)O2` (stereo not drawn), the EC50 is > 25.1 µM (inactive).
For the compound `O=S(=O)(c1ccc(-c2csc(=Nc3cccc(Cl)c3)n2CCCO)cc1)N1CCCCC1`, the EC50 was > 17.6 µM (inactive).
Consider `COc1ccc(Cl)cc1NC(=O)Nc1cccc([N+](=O)[O-])c1C`, for which the EC50 is > 28 µM (inactive).
The figure for `O=C(NCCOc1ccccc1)c1ccc(-c2ccc(N3CCOCC3)nc2)s1` is > 33 µM (inactive).
On to `O=C(Nc1nc2ccccc2s1)c1ccccc1F`, for which the EC50 is > 31.9 µM (inactive).
As to `O=C(Nc1nnc(SCc2cccc(F)c2)s1)C1CC1`, the EC50 is > 29 µM (inactive).
The figure for `COc1ccccc1OCC(=O)Nc1ccc(S(=O)(=O)NC(C)=O)cc1` is > 28 µM (inactive); for `CC(=O)Nc1ccc(Nc2nc(-c3ccc(C(=O)NC4CC4)cc3)nc3nc[nH]c23)cc1` it is > 27.8 µM (inactive); for `O=c1oc2cc(O)ccc2cc1-c1ccccc1` it is > 28.2 µM (inactive).
The figure for `COC(=O)c1c(NC(=O)c2cc(-c3ccc(CC(C)C)cc3)nc3ccccc23)sc(C)c1-c1ccccc1` is > 23.4 µM (inactive); for `CC[n+]1c(/C=C2\Sc3ccc(C)cc3N2CCO)ccc2ccccc21` it is “inactive”.
Take `C=CCN1C(=O)CC(C(=O)OC)C12CCN(C1CCN(C(=O)OCC)CC1)CC2` (stereo not drawn): the EC50 was > 28 µM (inactive).
Take `O=C(NN=C1CCCCC1)C(O)(c1ccccc1)c1ccccc1`: the EC50 is > 28 µM (inactive).
On to `CC1CC(=O)N(C)c2ccccc2S1` (stereo not drawn), for which the EC50 was > 28 µM (inactive).
Consider `CCOC(=O)c1c(NC(=O)C(C)C)sc(C(C)=O)c1C`, for which the EC50 result is “inactive”.
In the case of `Cc1ccc(NC(=O)C(CC(=O)O)C2CCCO2)cc1` (stereo not drawn), the EC50 was > 28 µM (inactive).
In the case of `O=C(O)CC1c2ccccc2CCN1S(=O)(=O)c1ccc(Cl)cc1` (stereo not drawn), the EC50 entry was “inactive”.
For `CC(=O)OCC1=C(C(=O)O)N2C(=O)[C@@H](NC(=O)Cc3cccs3)[C@H]2SC1`, the EC50 is > 28 µM (inactive).
The figure for `COc1ccc(-c2nnc(/C=C/c3cccs3)o2)cc1` is > 27.6 µM (inactive); for `Nc1nc2n(n1)C(c1ccccc1Cl)CC(c1ccc(F)cc1)N2` (stereo not drawn) it is > 28 µM (inactive).
The figure for `Cc1ccnc(SCc2cc(=O)c(OC(=O)c3cc(Cl)ccc3[N+](=O)[O-])co2)n1` is > 28.4 µM (inactive).
`COc1ccc(CCNc2cc(C)nc(Nc3ccc(-n4ccnc4)cc3)n2)cc1`: the half-maximal effective concentration (EC50) is 1.17 µM.
Take `O=C(O)c1ccc(-c2nc3ccccc3s2)s1`: the EC50 was > 30 µM (inactive).
As to `COc1ccc2nccnc2c1[N+](=O)[O-]`, the EC50 is > 40 µM (inactive).
The figure for `Cc1cc2nc(-c3ccc[nH]c3=O)[nH]c2cc1C` is > 28.1 µM (inactive); for `C=CCN1C(=O)/C(=C/c2ccc(Cl)cc2)C(=O)NC1=S` it is > 28 µM (inactive); for `Cc1ccc(C(=O)Nc2ncc([N+](=O)[O-])s2)cc1` it is > 31.4 µM (inactive).
Take `COc1ccc(CCNc2ccnc(Nc3ccc(-n4ccnc4)cc3)n2)cc1`: the EC50 result was “inactive”.
In the case of `CCCNC(=O)c1ccc2nc(-c3csc4ccccc34)sc2c1`, the EC50 is > 25.7 µM (inactive).
`Cc1ccc(NC(=O)CN(C)S(=O)(=O)c2ccc(Br)cc2)cc1Cl`: the EC50 was > 28 µM (inactive).
Take `CC(=O)Oc1ccccc1N1C(=O)c2cccc([N+](=O)[O-])c2C1=O`: the EC50 is > 35.6 µM (inactive).
Regarding `CC[C@@H](C(=O)[C@@H](C)[C@@H](O)[C@H](C)CCc1ccc(C)c(O)c1C(=O)O)[C@H]1O[C@](CC)([C@H]2CC[C@](O)(CC)[C@H](C)O2)C[C@@H]1C`, the EC50 is > 28 µM (inactive).
As for `Cc1nccc2[nH]c(=O)c(C(=O)NC3CCN(Cc4ccccc4)CC3)cc12`, the EC50 is > 28 µM (inactive).
Regarding `COc1cccc(NC(=O)n2ncc3c(C)cccc32)c1`, the EC50 is > 28 µM (inactive).
The figure for `Cc1cc2nc(-c3cccnc3Cl)[nH]c2cc1C` is > 26.1 µM (inactive).
Consider `COc1ccc(/C=N/NC(=O)COc2cccc(C)c2)cc1O`, for which the EC50 is > 28 µM (inactive).
`CCC(C)NC(=O)C1=C(C)C(=O)OC12CCCCC2` (stereo not drawn): the EC50 is > 28 µM (inactive).
Turning to `S=c1nc2c(n[nH]1)c1ccccc1n2CCc1ccccc1`, the EC50 was > 33 µM (inactive).
Take `O=C1/C(=C\c2ccncc2)SC(=S)N1Cc1ccccc1`: the EC50 entry was “inactive”.
Regarding `O=C(O)c1cccc(COc2ccc3ccccc3c2)c1`, the EC50 is > 28 µM (inactive).
The figure for `COC(=O)C(NC(=O)c1cccc(Cl)c1)(Nc1ccc(Cl)cn1)C(F)(F)F` (stereo not drawn) is > 28 µM (inactive); for `CC(C)c1ccc(N(CC(=O)NCCSc2ccccc2)S(C)(=O)=O)cc1` it is > 28 µM (inactive).
`Cn1c(=O)c2c(nc(N3CCCCCC3)n2CCc2ccccc2)n(C)c1=O`: the EC50 was > 27.9 µM (inactive).
In the case of `COc1ccc(N2C(=O)NC3CC2(C)Oc2c(OC)cccc23)c(OC)c1` (stereo not drawn), the EC50 was > 28.7 µM (inactive).
For `COc1ccc(Cn2nccc2N)cc1OC`, the EC50 is > 28.8 µM (inactive).
Turning to `Cn1c(=O)[nH]c(=O)c2c1nc(N1CCN(c3cccc(Cl)c3)CC1)n2Cc1ccccc1`, the EC50 was > 22.4 µM (inactive).
Consider `O=C(Nc1nc2cc3c(cc2s1)OCO3)C1=COCCO1`, for which the EC50 was > 27.4 µM (inactive).
For `O=C(NC1(C(F)(F)F)NC(=O)N(c2ccc(F)cc2)C1=O)c1ccncc1` (stereo not drawn), the EC50 is > 28 µM (inactive).
For the compound `COc1cc([N+](=O)[O-])ccc1NC(=O)Nc1ccc(Cl)cc1F`, the EC50 was > 28 µM (inactive).
On to `NC(=O)/C(=C\c1ccco1)NC(=O)c1ccccc1Br`, for which the EC50 is > 28 µM (inactive).
Regarding `COc1ccc(CCNc2ncnc3c2oc2ccccc23)cc1OC`, the EC50 is > 27.6 µM (inactive).
As to `CC1CCN(S(=O)(=O)c2ccc(NC(=O)CSc3nc4ccccc4o3)cc2)CC1`, the EC50 result is “inactive”.
The figure for `Cc1cc(C)c(C#N)c(Oc2cccc(N)c2)n1` is > 28 µM (inactive).
As for `CCCOc1ccc(NC(=O)C2CC(=O)N(CC)C(=Nc3ccc(C)c(C)c3)S2)cc1` (stereo not drawn), the EC50 is > 26.4 µM (inactive).
Take `CCN1CCc2c(sc(NC(=O)c3ccc(S(=O)(=O)N4CCCC(C)C4)cc3)c2C(=O)OC)C1` (stereo not drawn): the EC50 is > 27.6 µM (inactive).
With `O=C(Nc1noc2ccccc12)c1ccc(F)cc1`, the EC50 is > 28 µM (inactive).
As to `CCn1c(SCC(=O)c2ccccc2)nnc1C(C)C`, the EC50 is > 28 µM (inactive).
In the case of `CCOc1ccc(NS(=O)(=O)c2ccc3c(c2)n(C)c(=O)n3C)cc1`, the EC50 is > 28 µM (inactive).
Regarding `O=C(Nc1ncc(C(O)(C(F)(F)F)C(F)(F)F)s1)c1ccccc1Cl`, the EC50 was > 30.5 µM (inactive).
The figure for `N#Cc1nc2[nH]c(-c3ccccc3)cc(=O)n2c1C#N` is > 30 µM (inactive).
`CCc1cc2c(cc3c(=O)n(CC(=O)NCc4ccccc4Br)ncn32)s1`: the EC50 was > 28 µM (inactive).
Turning to `CCC(=O)N1CCN(c2ccc(NC(=O)c3ccco3)cc2)CC1`, the EC50 was > 28 µM (inactive).
Regarding `CC(C(=O)O)c1ccc(C(=O)c2ccccc2)s1` (stereo not drawn), the EC50 is > 28 µM (inactive).
Turning to `O=C1N[C@@H](Cc2ccc(Cl)cc2)C(=O)N2CCN(C(=O)c3cc(Cl)cc(Cl)c3)C[C@H]12`, the EC50 was > 28 µM (inactive).
